Reference: the supplement of paper PMC12076712

Key:
Experiment in all cases: pIC50, kinobeads binding competition
UniProt Q9H0K1 = biological target: UniProt Q9H0K1
Procedure, shortened: (§1)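 Jurkat cells were exposed alive to nine compound concentrations (top 30 μM, 1:4 steps) or vehicle for 60 min at 37 °C and then lysed. In a second format, nine concentrations (top 30 μM, 1:5 steps) were incubated for 60 min at 4 °C with Jurkat lysate or with a 1:1:1:1 lysate mix of HEK293, K-562, HepG2 and placenta. Proteins captured on Kinobeads were digested and quantified by TMT10 LC-MS/MS. pIC50 values were derived from logistic dose-response fits (R drc package) of fold changes relative to vehicle, in biological duplicates.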

UniProt O14757 = biological target: T1, UniProt O14757
T1 sequence (whole entry): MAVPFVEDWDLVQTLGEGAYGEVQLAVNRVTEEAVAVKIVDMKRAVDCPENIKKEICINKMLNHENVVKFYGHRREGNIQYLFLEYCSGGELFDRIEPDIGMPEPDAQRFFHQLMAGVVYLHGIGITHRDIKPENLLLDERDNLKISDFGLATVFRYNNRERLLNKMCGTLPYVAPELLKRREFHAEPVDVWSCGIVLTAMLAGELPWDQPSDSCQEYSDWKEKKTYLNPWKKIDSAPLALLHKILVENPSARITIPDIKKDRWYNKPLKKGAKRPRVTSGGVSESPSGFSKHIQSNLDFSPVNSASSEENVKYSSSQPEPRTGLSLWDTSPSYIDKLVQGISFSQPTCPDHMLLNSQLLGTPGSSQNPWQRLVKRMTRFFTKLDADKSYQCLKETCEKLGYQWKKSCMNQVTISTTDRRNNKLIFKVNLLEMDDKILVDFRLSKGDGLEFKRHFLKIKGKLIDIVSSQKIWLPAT
Procedure, shortened: as §1

TEC = biological target: T2, TEC (UniProt P42680)
T2 sequence (whole entry): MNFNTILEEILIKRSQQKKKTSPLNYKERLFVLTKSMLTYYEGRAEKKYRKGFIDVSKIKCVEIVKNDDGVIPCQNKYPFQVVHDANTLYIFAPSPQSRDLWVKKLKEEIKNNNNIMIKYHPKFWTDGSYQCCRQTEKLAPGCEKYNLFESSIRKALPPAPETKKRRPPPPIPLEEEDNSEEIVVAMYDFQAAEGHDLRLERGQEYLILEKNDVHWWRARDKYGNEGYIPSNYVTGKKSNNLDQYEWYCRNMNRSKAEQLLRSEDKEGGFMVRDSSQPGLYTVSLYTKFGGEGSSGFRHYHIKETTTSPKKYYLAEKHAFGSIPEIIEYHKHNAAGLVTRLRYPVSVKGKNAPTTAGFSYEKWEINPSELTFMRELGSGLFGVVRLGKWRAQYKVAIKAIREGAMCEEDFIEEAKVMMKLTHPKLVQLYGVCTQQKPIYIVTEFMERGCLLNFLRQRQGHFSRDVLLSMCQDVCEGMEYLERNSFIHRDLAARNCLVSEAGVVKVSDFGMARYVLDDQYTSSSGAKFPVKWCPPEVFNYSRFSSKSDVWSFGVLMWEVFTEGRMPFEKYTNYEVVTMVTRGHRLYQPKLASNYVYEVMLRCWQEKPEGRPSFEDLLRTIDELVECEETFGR
Procedure, shortened: as §1

EPHB1 = biological target: T3, EPHB1 (UniProt P54762); conditions: cell material: Lysate mix
T3 sequence (whole entry): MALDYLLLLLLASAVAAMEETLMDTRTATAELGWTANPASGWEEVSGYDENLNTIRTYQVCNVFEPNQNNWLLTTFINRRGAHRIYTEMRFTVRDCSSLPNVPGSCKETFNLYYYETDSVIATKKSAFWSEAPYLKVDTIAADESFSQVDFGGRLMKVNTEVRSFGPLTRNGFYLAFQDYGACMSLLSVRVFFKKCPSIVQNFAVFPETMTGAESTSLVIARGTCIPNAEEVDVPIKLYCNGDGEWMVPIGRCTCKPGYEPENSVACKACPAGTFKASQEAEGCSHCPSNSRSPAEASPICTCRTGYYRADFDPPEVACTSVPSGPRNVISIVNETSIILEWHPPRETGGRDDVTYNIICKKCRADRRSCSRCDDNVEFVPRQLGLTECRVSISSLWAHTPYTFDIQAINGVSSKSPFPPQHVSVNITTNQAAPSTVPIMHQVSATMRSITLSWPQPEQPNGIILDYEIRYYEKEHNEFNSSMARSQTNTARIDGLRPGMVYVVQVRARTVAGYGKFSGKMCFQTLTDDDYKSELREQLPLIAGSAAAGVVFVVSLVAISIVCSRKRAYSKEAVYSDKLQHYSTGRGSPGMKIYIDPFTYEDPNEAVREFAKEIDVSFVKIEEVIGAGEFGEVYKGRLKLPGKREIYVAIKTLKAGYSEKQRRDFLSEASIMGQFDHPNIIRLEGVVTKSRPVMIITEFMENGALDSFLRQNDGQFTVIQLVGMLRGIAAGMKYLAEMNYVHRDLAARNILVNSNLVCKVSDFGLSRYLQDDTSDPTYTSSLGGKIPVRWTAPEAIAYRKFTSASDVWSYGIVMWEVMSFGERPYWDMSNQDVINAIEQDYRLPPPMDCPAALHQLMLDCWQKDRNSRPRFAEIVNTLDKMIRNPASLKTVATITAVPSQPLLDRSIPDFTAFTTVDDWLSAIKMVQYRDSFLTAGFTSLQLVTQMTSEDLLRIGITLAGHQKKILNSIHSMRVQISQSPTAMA
Procedure, shortened: as §1

UniProt Q14289 = biological target: UniProt Q14289
Sequence of UniProt Q14289 (Q14289 whole entry, looked up): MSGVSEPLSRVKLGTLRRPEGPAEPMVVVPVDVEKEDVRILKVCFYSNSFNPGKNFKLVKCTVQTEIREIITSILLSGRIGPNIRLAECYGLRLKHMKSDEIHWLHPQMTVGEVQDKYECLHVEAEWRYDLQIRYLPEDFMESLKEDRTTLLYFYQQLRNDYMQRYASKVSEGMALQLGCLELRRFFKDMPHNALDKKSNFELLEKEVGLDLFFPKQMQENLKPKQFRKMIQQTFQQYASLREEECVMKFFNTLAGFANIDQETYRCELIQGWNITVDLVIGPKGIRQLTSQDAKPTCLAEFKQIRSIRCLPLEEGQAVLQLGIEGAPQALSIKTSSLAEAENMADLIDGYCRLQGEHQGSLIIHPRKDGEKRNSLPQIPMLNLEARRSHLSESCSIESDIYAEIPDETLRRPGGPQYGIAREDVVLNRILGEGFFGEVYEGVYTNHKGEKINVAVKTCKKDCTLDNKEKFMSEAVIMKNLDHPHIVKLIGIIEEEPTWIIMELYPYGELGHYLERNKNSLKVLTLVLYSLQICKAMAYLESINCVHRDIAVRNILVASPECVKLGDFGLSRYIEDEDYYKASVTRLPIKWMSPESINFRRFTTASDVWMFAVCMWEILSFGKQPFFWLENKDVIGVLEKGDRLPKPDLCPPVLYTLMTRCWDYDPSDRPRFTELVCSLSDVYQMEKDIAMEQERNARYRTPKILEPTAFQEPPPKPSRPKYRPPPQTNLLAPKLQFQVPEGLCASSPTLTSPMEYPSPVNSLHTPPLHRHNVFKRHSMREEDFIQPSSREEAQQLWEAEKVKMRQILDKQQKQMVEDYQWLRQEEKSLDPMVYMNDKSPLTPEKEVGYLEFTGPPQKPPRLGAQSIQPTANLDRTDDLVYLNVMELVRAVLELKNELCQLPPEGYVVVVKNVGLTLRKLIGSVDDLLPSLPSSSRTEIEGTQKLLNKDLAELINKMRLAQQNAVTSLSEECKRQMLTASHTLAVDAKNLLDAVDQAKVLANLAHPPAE
Procedure, shortened: as §1

UniProt Q13188 = biological target: T4, UniProt Q13188
T4 sequence (whole entry): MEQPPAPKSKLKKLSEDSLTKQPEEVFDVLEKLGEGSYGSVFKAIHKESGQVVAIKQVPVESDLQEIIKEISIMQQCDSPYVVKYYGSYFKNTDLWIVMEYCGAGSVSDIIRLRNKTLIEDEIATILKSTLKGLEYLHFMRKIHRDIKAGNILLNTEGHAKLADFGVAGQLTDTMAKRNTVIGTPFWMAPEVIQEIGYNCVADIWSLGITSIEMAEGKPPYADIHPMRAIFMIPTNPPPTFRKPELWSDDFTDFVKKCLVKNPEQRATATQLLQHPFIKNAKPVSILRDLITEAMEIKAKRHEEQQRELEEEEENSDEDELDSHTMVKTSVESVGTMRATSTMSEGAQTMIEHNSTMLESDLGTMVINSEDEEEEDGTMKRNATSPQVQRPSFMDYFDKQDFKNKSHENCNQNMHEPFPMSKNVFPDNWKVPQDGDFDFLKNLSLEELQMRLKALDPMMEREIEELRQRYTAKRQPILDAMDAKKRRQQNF
Procedure, shortened: as §1

IGF1R = IGF1R (UniProt P08069)
Sequence of IGF1R (P08069 whole entry, looked up): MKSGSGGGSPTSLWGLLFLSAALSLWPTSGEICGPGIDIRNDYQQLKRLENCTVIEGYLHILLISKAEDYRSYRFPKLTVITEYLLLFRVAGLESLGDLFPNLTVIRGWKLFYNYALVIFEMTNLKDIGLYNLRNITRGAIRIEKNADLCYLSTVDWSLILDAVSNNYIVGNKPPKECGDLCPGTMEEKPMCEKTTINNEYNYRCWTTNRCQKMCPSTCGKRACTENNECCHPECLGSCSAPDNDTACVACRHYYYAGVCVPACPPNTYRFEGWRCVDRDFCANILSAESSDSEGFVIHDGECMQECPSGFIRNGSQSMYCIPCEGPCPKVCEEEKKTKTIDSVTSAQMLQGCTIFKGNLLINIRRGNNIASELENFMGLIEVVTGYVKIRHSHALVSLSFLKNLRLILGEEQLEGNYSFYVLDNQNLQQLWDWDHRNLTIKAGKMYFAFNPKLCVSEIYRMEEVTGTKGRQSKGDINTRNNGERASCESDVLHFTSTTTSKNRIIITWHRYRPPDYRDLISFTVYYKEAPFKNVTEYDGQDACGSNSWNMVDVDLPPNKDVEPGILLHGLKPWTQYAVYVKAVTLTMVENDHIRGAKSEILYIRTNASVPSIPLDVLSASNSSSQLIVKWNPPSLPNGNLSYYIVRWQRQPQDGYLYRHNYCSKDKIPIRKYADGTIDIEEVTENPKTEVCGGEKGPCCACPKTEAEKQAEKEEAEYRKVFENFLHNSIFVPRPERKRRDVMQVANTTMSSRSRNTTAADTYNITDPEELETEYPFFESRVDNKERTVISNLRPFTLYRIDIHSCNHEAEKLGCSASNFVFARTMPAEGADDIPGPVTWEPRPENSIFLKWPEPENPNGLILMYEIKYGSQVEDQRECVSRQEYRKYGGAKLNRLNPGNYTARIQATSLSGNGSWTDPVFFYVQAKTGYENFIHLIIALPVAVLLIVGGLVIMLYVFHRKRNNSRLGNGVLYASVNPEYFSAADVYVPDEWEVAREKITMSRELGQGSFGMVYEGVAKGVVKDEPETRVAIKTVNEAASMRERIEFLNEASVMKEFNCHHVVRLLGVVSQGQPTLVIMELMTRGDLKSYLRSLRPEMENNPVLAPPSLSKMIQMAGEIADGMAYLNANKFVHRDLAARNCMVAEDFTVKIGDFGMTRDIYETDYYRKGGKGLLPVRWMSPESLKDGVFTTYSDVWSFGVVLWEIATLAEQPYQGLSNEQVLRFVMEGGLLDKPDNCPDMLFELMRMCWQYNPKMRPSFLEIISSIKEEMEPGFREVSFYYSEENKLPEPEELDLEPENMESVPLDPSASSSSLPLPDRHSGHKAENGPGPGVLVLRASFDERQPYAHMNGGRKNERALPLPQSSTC
Procedure, shortened: as §1

UniProt P49674 = biological target: UniProt P49674
Sequence of UniProt P49674 (P49674 whole entry, looked up): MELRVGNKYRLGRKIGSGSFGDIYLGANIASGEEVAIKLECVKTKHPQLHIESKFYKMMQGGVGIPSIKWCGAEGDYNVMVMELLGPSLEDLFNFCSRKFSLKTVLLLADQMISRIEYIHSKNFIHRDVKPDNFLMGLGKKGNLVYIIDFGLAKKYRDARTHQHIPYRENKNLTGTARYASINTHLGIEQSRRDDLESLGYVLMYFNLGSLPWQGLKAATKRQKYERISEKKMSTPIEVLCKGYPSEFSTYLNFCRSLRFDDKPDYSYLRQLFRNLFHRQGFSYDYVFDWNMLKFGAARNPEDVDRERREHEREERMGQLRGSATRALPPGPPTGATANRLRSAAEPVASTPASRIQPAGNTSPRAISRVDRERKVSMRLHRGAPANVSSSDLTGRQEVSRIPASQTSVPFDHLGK
Procedure, shortened: as §1

Sequence of UniProt Q9H0K1 (Q9H0K1 whole entry, looked up): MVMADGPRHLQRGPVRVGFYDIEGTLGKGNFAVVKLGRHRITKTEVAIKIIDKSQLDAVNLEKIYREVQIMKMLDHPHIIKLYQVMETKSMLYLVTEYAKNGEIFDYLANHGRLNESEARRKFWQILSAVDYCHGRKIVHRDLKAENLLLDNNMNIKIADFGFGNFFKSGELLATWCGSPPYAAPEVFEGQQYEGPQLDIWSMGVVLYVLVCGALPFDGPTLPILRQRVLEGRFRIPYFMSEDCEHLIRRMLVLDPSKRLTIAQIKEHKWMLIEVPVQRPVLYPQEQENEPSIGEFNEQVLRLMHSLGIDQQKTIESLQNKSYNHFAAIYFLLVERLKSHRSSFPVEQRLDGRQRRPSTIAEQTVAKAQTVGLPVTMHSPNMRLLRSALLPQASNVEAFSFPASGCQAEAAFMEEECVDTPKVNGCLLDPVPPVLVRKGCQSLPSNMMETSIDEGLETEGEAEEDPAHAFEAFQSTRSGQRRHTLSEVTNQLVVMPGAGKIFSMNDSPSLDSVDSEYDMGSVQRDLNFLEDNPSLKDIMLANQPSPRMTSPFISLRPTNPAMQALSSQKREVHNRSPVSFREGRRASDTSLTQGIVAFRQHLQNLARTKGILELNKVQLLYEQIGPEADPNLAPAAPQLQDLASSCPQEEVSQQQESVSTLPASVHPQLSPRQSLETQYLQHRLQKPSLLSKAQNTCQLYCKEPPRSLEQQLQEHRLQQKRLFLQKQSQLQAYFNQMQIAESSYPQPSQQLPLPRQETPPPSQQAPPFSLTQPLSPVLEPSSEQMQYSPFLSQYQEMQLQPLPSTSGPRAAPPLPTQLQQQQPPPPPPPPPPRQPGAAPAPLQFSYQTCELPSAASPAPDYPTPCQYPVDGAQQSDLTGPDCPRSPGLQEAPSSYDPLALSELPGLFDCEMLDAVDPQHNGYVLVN

| pIC50 (UniProt Q9H0K1; cell material: Lysate mix) | pIC50 (UniProt O14757; cell material: Lysate mix) | pIC50 (TEC; cell material: Lysate mix) | pIC50 (EPHB1) | pIC50 (UniProt Q14289; cell material: Lysate mix) | pIC50 (UniProt Q13188; cell material: Lysate mix) | pIC50 (IGF1R; cell material: Lysate mix) | pIC50 (UniProt P49674; cell material: Lysate mix) | pIC50 (IGF1R; cell material: Jurkat cells) | SMILES | pIC50 (UniProt Q9H0K1; cell material: Jurkat cells) | pIC50 (UniProt Q9H0K1; cell material: Jurkat lysate) | pIC50 (UniProt O14757; cell material: Jurkat cells) | pIC50 (UniProt O14757; cell material: Jurkat lysate) | pIC50 (TEC; cell material: Jurkat cells) | pIC50 (TEC; cell material: Jurkat lysate) | pIC50 (UniProt Q14289; cell material: Jurkat cells) | pIC50 (UniProt Q14289; cell material: Jurkat lysate) | pIC50 (UniProt Q13188; cell material: Jurkat cells) | pIC50 (IGF1R; cell material: Jurkat lysate) | pIC50 (UniProt P49674; cell material: Jurkat lysate) | pIC50 (UniProt Q13188; cell material: Jurkat lysate) | pIC50 (UniProt P49674; cell material: Jurkat cells) |
| --- | --- | --- | --- | --- | --- | --- | --- | --- | --- | --- | --- | --- | --- | --- | --- | --- | --- | --- | --- | --- | --- | --- |
| < 4.52 | < 4.52 | < 4.52 | < 4.52 | < 4.52 | < 4.52 | < 4.52 | < 4.52 | – | Cc1cc(Nc2cc(C(=O)NCCNC(=O)OC3CC/C=C/CCC3)nc(N3CCN(Cc4ccc(S(=O)(=O)F)cc4)CC3)n2)n[nH]1 (stereo not drawn) | – | – | – | – | – | – | – | – | – | – | – | – | – |
| < 4.52 | < 4.52 | < 4.52 | < 4.52 | < 4.52 | 5.6 | < 4.52 | < 4.52 | – | C#CCNC(=O)c1cc(Nc2cc(C)[nH]n2)nc(N2CCN(Cc3ccc(S(=O)(=O)F)cc3)CC2)n1 | – | – | – | – | – | – | – | – | – | – | – | – | – |
| < 4.52 | < 4.52 | < 4.52 | < 4.52 | < 4.52 | < 4.52 | < 4.52 | < 4.52 | < 4.52 | O=C(NCCNC(=O)c1cc(Nc2cc(C3CC3)[nH]n2)nc(N2CCN(Cc3ccc(S(=O)(=O)F)cc3)CC2)n1)OC1CC/C=C/CCC1 (stereo not drawn) | 5.62 | < 4.52 | < 4.52 | < 4.52 | 4.8 | < 4.52 | 4.98 | < 4.52 | 5.6 | < 4.52 | < 4.52 | – | – |
| < 4.52 | < 4.52 | < 4.52 | < 4.52 | < 4.52 | 5.64 | < 4.52 | < 4.52 | – | CCNC(=O)c1cc(Nc2cc(C)[nH]n2)nc(N2CCN(Cc3ccc(S(=O)(=O)F)cc3)CC2)n1 | – | – | – | – | – | – | – | – | – | – | – | – | – |
| < 4.52 | < 4.52 | < 4.52 | < 4.52 | < 4.52 | 5.94 | < 4.52 | < 4.52 | – | CCNC(=O)c1cc(Nc2cc(C3CC3)[nH]n2)nc(N2CCN(Cc3ccc(S(=O)(=O)F)cc3)CC2)n1 | – | – | – | – | – | – | – | – | – | – | – | – | – |

| SMILES | pIC50 (UniProt Q9H0K1; cell material: Lysate mix) | pIC50 (UniProt O14757; cell material: Lysate mix) | pIC50 (TEC; cell material: Lysate mix) | pIC50 (EPHB1) | pIC50 (UniProt Q14289; cell material: Lysate mix) | pIC50 (UniProt Q13188; cell material: Lysate mix) | pIC50 (IGF1R; cell material: Lysate mix) | pIC50 (UniProt P49674; cell material: Lysate mix) | pIC50 (IGF1R; cell material: Jurkat cells) | pIC50 (UniProt Q9H0K1; cell material: Jurkat cells) | pIC50 (UniProt Q9H0K1; cell material: Jurkat lysate) | pIC50 (UniProt O14757; cell material: Jurkat cells) | pIC50 (UniProt O14757; cell material: Jurkat lysate) | pIC50 (TEC; cell material: Jurkat cells) | pIC50 (TEC; cell material: Jurkat lysate) | pIC50 (UniProt Q14289; cell material: Jurkat cells) | pIC50 (UniProt Q14289; cell material: Jurkat lysate) | pIC50 (UniProt Q13188; cell material: Jurkat cells) | pIC50 (IGF1R; cell material: Jurkat lysate) | pIC50 (UniProt P49674; cell material: Jurkat lysate) | pIC50 (UniProt Q13188; cell material: Jurkat lysate) | pIC50 (UniProt P49674; cell material: Jurkat cells) |
| --- | --- | --- | --- | --- | --- | --- | --- | --- | --- | --- | --- | --- | --- | --- | --- | --- | --- | --- | --- | --- | --- | --- |
| C#CCNC(=O)c1cc(Nc2cc(C3CC3)[nH]n2)nc(N2CCN(Cc3ccc(S(=O)(=O)F)cc3)CC2)n1 | < 4.52 | < 4.52 | < 4.52 | < 4.52 | < 4.52 | 6.27 | < 4.52 | < 4.52 | – | 6.22 | < 4.52 | 5.16 | < 4.52 | 5.88 | < 4.52 | 5.98 | < 4.52 | 6.3 | < 4.52 | < 4.52 | 5.64 | 5.4 |
